In patent US20060003942A1, “Combinations for HCV treatment” (priority 2003, published 2006):
Like-named read-outs stand apart in the source and are kept apart here.

How the values were obtained:
[1] = test system: VX-950 metabolism in human hepatic microsomes; format: in vitro ADME; details: 0.25 μM VX-950, 0.25 mg microsomal protein/mL, 2 minutes

Row | metabolized in human liver microsomes (1 h, 2 μM) | metabolized in human liver microsomes (1 h, 20 μM) | metabolized in human liver microsomes (2 h, 2 μM) | metabolized in human liver microsomes (2 h, 20 μM) | Compound | effect of ritonavir on VX-950 metabolism ([1]; ritonavir 10 to 100 μM) | effect of ritonavir on VX-950 metabolism ([1]; ritonavir up to 3 μM)
1 | 73% | 7% | 86% | 21% | CCC[C@H](NC(=O)[C@@H]1[C@H]2CCC[C@H]2CN1C(=O)[C@@H](NC(=O)[C@@H](NC(=O)c1cnccn1)C1CCCCC1)C(C)(C)C)C(=O)C(=O)NC1CC1 [VX-950] | – | –
2 | – | – | – | – | CC(C)c1nc(CN(C)C(=O)N[C@H](C(=O)N[C@@H](Cc2ccccc2)C[C@H](O)[C@H](Cc2ccccc2)NC(=O)OCc2cncs2)C(C)C)cs1 [ritonavir] | increase in VX-950 metabolism | inhibition of VX-950 metabolism
